Laboratory results: patent US10166216B2 (Rigel Pharmaceuticals, Inc., priority 2006, dated 2019)

Molecular target: Axl (Homo sapiens (Human), UniProt P30530)
Assay: Phospho-Akt in-cell Western assay (Axl-antibody cross-linking stimulation)
Type: cell-based
Settings: inhibition of Axl activity
Summary of the method: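 HeLa cells on poly-L-lysine, starved 24 hrs with Axl/Fc, pre-treated with compound 1 hr at 37° C., then stimulated 5 min with Axl primary/secondary antibody cluster. Fixed cells probed for phospho-Akt by chemiluminescent in-cell Western; signal normalized to crystal violet cell number.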

[1] = phospho-Akt in-cell Western assay
[2] = Hela cells, phospho-Akt readout, Table 5, formula (Ia3)

Sequence of Axl (P30530 26-894): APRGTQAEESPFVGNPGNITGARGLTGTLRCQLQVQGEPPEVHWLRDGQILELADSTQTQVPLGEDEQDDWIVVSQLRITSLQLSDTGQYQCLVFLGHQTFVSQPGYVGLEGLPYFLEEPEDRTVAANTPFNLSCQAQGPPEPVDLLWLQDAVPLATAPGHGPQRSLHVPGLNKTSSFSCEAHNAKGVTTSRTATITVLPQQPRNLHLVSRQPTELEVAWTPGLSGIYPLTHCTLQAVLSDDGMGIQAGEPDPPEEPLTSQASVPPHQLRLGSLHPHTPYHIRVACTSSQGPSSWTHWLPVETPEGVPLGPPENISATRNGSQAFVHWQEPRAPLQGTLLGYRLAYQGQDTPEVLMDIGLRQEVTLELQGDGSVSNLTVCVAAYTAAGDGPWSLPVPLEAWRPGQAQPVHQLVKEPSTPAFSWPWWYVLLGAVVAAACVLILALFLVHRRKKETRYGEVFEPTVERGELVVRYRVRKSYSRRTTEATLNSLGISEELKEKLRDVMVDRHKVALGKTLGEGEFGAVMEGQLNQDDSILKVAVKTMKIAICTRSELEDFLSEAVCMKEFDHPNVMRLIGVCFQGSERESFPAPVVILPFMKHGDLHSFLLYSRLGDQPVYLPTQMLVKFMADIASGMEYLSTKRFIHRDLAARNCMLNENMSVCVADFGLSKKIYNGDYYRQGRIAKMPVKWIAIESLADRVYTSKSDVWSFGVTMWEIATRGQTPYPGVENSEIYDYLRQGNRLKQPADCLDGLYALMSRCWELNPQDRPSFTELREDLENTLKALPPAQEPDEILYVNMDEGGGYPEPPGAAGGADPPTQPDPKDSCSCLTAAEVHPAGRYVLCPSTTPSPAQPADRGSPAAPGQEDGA

| IC50 [1] | IC50 [2] | SMILES |
| --- | --- | --- |
| < 1000 nM | – | C[C@H]1CN(c2ccc(Nc3nc(N)n(-c4ncnc5ccsc45)n3)cc2F)CCN1[C@H]1C[C@@H]2CC[C@H]1C2 [Compound 255, 1-thieno[3,2-d]pyrimidin-4-yl-N^3-(3-fluoro-4-(3-(S)-methyl-4-((1S,2S,4R)-bicyclo[2.2.1]heptan-2-yl)piperazin-1-yl)phenyl)-1H-1,2,4-triazole-3,5-diamine] |
| – | < 1000 nM | COc1ccc2nc(Cl)c(-n3nc(Nc4ccc(N5CCC(N6CCCC6)CC5)c(F)c4)nc3N)nc2c1 [Compound 256, 1-(2-chloro-6-methoxy-quinoxalin-3-yl)-N^3-(3-fluoro-4-(4-(pyrrolidin-1-yl)piperidin-1-yl)phenyl)-1H-1,2,4-triazole-3,5-diamine] |
| – | < 1000 nM | Nc1nc(Nc2ccc(N3CCC(N4CCCC4)CC3)c(F)c2)nn1-c1cc(-c2ccccc2)ccn1 [Compound 259, 1-(4-phenylpyridin-2-yl)-N^3-(3-fluoro-4-(4-(pyrrolidin-1-yl)piperidin-1-yl)phenyl)-1H-1,2,4-triazole-3,5-diamine] |
| – | < 1000 nM | Cc1csc2c(-n3nc(Nc4ccc(N5CCC(N6CC7CCC6C7)CC5)c(F)c4)nc3N)ncnc12 (stereo not shown) [Compound 260, 1-(7-methylthieno[3,2-d]pyrimidin-4-yl)-N^3-(3-fluoro-4-(4-(2-azabicyclo[2.2.1]heptan-2-yl)piperidin-1-yl)phenyl)-1H-1,2,4-triazole-3,5-diamine] |
| – | < 1000 nM | Cc1csc2c(-n3nc(Nc4ccc(C5CCN(C6CC7CCC6C7)CC5)cc4)nc3N)ncnc12 (stereo not shown) [Compound 261, 1-(7-methylthieno[3,2-d]pyrimidin-4-yl)-N^3-(4-(1-(bicyclo[2.2.1]heptan-2-yl)piperidin-4-yl)phenyl)-1H-1,2,4-triazole-3,5-diamine] |

Continued, molecule first:

| SMILES | IC50 [1] | IC50 [2] |
| --- | --- | --- |
| Cc1csc2c(-n3nc(Nc4ccc(N5CCN(C6CC7CCC6C7)[C@H](C)C5)c(F)c4)nc3N)ncnc12 (stereo partly drawn) [Compound 248, 1-(7-methylthieno[3,2-d]pyrimidin-4-yl)-N^3-(3-fluoro-4-(3-(R)-methyl-4-(bicyclo[2.2.1]heptan-2-yl)piperazin-1-yl)phenyl)-1H-1,2,4-triazole-3,5-diamine] | < 1000 nM | – |
| Cc1csc2c(-n3nc(Nc4ccc(N5CCN(C6CC7CCC6C7)[C@@H](C)C5)c(F)c4)nc3N)ncnc12 (stereo partly drawn) [Compound 249, 1-(7-methylthieno[3,2-d]pyrimidin-4-yl)-N^3-(3-fluoro-4-(3-(S)-methyl-4-(bicyclo[2.2.1]heptan-2-yl)piperazin-1-yl)phenyl)-1H-1,2,4-triazole-3,5-diamine] | < 1000 nM | – |
| Cc1csc2c(-n3nc(Nc4ccc(N5CCN([C@H]6C[C@@H]7CC[C@H]6C7)[C@H](C)C5)c(F)c4)nc3N)ncnc12 [Compound 250, 1-(7-methylthieno[3,2-d]pyrimidin-4-yl)-N^3-(3-fluoro-4-(3-(R)-methyl-4-((1S,2S,4R)-bicyclo[2.2.1]heptan-2-yl)piperazin-1-yl)phenyl)-1H-1,2,4-triazole-3,5-diamine] | < 1000 nM | – |
| Cc1csc2c(-n3nc(Nc4ccc(N5CCN([C@H]6C[C@@H]7CC[C@H]6C7)[C@@H](C)C5)c(F)c4)nc3N)ncnc12 [Compound 251, 1-(7-methylthieno[3,2-d]pyrimidin-4-yl)-N^3-(3-fluoro-4-(3-(S)-methyl-4-((1S,2S,4R)-bicyclo[2.2.1]heptan-2-yl)piperazin-1-yl)phenyl)-1H-1,2,4-triazole-3,5-diamine] | < 1000 nM | – |
| Cc1cc(Nc2nc(N)n(-c3ncnc4c(C)csc34)n2)ccc1N1CCN([C@H]2C[C@@H]3CC[C@H]2C3)CC1 [Compound 252, 1-(7-methylthieno[3,2-d]pyrimidin-4-yl)-N^3-(3-methyl-4-(4-((1S,2S,4R)-bicyclo[2.2.1]heptan-2-yl)piperazin-1-yl)phenyl)-1H-1,2,4-triazole-3,5-diamine] | < 1000 nM | – |
| Cc1cc(Nc2nc(N)n(-c3ncnc4c(C)csc34)n2)ccc1N1CCN([C@H]2C[C@@H]3CC[C@H]2C3)[C@@H](C)C1 [Compound 253, 1-(7-methylthieno[3,2-d]pyrimidin-4-yl)-N^3-(3-methyl-4-(3-(S)-methyl-4-((1S,2S,4R)-bicyclo[2.2.1]heptan-2-yl)piperazin-1-yl)phenyl)-1H-1,2,4-triazole-3,5-diamine] | < 1000 nM | – |
| Cc1cc(Nc2nc(N)n(-c3ncnc4c(C)csc34)n2)ccc1N1CCN([C@H]2C[C@@H]3CC[C@H]2C3)[C@H](C)C1 [Compound 254, 1-(7-methylthieno[3,2-d]pyrimidin-4-yl)-N^3-(3-methyl-4-(3-(R)-methyl-4-((1S,2S,4R)-bicyclo[2.2.1]heptan-2-yl)piperazin-1-yl)phenyl)-1H-1,2,4-triazole-3,5-diamine] | < 1000 nM | – |
| Cc1csc2c(-n3nc(Nc4ccc(N5CCN([C@H]6C[C@@H]7CC[C@H]6C7)[C@@H](C)C5)c(F)c4)nc3N)nc(Cl)nc12 [Compound 257] | < 1000 nM | – |
